Source: patent US20100120700A1, “METHODS AND COMPOSITIONS FOR TREATING CERVICAL CANCER” (priority 2000, published 2010)
Several values for one entry are separate records, joined by “and”; a condition that tells them apart may be missing. Identical values can stand only once.

Assays:
Experiment in all cases: G assay PDZ-PL binding
EBP50 #168.2 domain 2 = target: T1, EBP50 #168.2 domain 2 (Homo sapiens, UniProt O14745); conditions: peptide 10 uM, protein 5
T1 construct: made in house; host or cells: E. coli (DH5alpha, BL21 or JM109)
Summary of the method: (§1)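 Plate ELISA: anti-GST antibody coat, BSA block, then GST/PDZ fusion (GST alone as negative control). Biotinylated PL peptide 20 uM (10 uM in G′ variant) added, 10 min 4 °C plus 20 min 25 °C; streptavidin-HRP, TMB, absorbance 450 nm.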

KIAA0147 domain 1 = target: T2, KIAA0147 domain 1 (Homo sapiens, UniProt Q14160); conditions: A450 nm, peptide 10 uM, protein 5
T2 construct: made in house; host or cells: E. coli (DH5alpha, BL21 or JM109)
Summary of the method: as §1

KIAA0316 domain 1 = target: T3, KIAA0316 domain 1 (Homo sapiens, UniProt Q14CM0); conditions: peptide 10 uM, protein 5
T3 construct: made in house; host or cells: E. coli (DH5alpha, BL21 or JM109), vector pGEX-3X
Summary of the method: as §1

KIAA0380 #25.6 domain 1 = target: T4, KIAA0380 #25.6 domain 1 (Homo sapiens, UniProt O15085); conditions: vs GST only well, peptide 10 uM, protein 5
T4 construct: made in house; host or cells: E. coli (DH5alpha, BL21 or JM109), vector pGEX-3X
Summary of the method: as §1

KIAA0380 #25.8 domain 1 = target: T5, KIAA0380 #25.8 domain 1 (Homo sapiens, UniProt O15085); conditions: peptide 10 uM, protein 5
T5 construct: made in house; host or cells: E. coli (DH5alpha, BL21 or JM109), vector pGEX-3X
Summary of the method: as §1

KIAA0561 domain 1 = target: T6, KIAA0561 domain 1 (Homo sapiens, UniProt O60307); conditions: peptide 10 uM, protein 5
T6 construct: made in house; host or cells: E. coli (DH5alpha, BL21 or JM109)
Summary of the method: as §1

KIAA1095 domain 1 = target: T7, KIAA1095 domain 1 (Homo sapiens, UniProt Q9UPQ7); conditions: peptide 10 uM, protein 5
T7 construct: made in house; host or cells: E. coli (DH5alpha, BL21 or JM109)
Summary of the method: as §1

KIAA1526 #126.1 domain 2 = target: T8, KIAA1526 #126.1 domain 2 (Homo sapiens, UniProt Q9P202, G331W); conditions: peptide 10 uM, protein 5
T8 construct: made in house; host or cells: E. coli (DH5alpha, BL21 or JM109)
Summary of the method: as §1

KIAA1634 domain 5 = target: T9, KIAA1634 domain 5 (Homo sapiens, UniProt Q5TCQ9); conditions: peptide 10 uM, protein 5
T9 construct: made in house; host or cells: E. coli (DH5alpha or BL-21)
Summary of the method: as §1

KIAA1719 domain 5 = target: T10, KIAA1719 domain 5 (Homo sapiens, UniProt Q9C0E4); conditions: peptide 10 uM, protein 5
T10 construct: made in house; host or cells: E. coli (DH5alpha or BL-21)
Summary of the method: as §1

MUPP1 domain 7 = target: T11, MUPP1 domain 7 (Homo sapiens, UniProt O75970); conditions: peptide 10 uM, protein 5
T11 construct: made in house; host or cells: E. coli (DH5alpha, BL21 or JM109)
Summary of the method: as §1

NeDLG domain 1 = target: T12, NeDLG domain 1 (Homo sapiens, UniProt Q92796, D190E); conditions: peptide 10 uM, protein 5
T12 construct: made in house; host or cells: E. coli (DH5alpha, BL21 or JM109)
Summary of the method: as §1

RGS12 domain 1 = target: T13, RGS12 domain 1 (Homo sapiens, UniProt O14924); conditions: peptide 10 uM, protein 5
T13 construct: made in house; host or cells: E. coli (DH5alpha, BL21 or JM109), vector pGEX-3X
Summary of the method: as §1

ZO-1 domain 2 = target: T14, ZO-1 domain 2 (Homo sapiens, UniProt Q07157, DEL264-264); conditions: peptide 10 uM, protein 5
T14 construct: made in house; host or cells: E. coli (DH5alpha, BL21 or JM109)
Summary of the method: as §1

T3 sequence (Q14CM0 72-159): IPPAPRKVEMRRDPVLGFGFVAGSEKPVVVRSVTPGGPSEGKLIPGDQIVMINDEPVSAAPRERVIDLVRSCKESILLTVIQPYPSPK
T7 sequence (Q9UPQ7 with tags, fused parts or gaps): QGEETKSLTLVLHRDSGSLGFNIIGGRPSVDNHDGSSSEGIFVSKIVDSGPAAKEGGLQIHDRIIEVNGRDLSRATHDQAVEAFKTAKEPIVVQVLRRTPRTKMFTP
T13 sequence (O14924 with tags, fused parts or gaps): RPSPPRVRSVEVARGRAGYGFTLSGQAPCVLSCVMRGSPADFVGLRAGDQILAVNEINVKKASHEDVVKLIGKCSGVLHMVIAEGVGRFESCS
T4 sequence (O15085 45-123): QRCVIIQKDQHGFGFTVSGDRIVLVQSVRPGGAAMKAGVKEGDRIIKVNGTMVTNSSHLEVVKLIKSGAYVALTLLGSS
T5 sequence (O15085 45-123): as above
T14 sequence (Q07157 with tags, fused parts or gaps DEL264-264): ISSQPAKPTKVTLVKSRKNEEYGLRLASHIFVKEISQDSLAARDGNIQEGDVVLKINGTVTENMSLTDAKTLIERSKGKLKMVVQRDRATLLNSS
T9 sequence (Q5TCQ9 1040-1137 isoform Q5TCQ9-2): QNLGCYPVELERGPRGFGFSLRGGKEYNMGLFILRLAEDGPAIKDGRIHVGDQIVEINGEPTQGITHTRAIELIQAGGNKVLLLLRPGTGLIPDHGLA
T2 sequence (Q14160 with tags, fused parts or gaps): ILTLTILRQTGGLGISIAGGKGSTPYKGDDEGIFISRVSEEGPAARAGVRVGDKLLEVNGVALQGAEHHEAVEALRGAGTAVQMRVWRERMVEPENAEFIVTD
T11 sequence (O75970 with tags, fused parts or gaps): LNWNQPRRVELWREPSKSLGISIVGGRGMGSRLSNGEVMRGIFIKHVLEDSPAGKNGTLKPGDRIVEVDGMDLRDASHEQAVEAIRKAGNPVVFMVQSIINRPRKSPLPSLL
T6 sequence (O60307 with tags, fused parts or gaps): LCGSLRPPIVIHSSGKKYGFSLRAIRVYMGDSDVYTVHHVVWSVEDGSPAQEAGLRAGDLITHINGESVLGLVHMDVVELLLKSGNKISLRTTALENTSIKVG
T10 sequence (Q9C0E4 with tags, fused parts or gaps): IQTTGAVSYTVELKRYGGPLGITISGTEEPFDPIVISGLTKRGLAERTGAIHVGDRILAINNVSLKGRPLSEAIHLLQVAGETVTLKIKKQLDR
T8 sequence (Q9P202 272-371 G331W): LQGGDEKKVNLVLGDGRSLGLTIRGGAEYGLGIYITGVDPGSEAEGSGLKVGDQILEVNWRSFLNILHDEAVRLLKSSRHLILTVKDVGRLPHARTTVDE
T1 sequence (O14745 with tags, fused parts or gaps): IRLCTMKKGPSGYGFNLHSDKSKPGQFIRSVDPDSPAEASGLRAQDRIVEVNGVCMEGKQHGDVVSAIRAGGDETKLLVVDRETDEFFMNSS
T12 sequence (Q92796 with tags, fused parts or gaps D190E): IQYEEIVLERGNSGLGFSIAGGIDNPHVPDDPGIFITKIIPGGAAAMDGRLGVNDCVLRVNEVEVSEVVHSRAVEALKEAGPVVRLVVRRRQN

Q: For “20 mer peptide corresponding to the C-terminus of HPV16 E6 (PDZ ligand), biotinylated in binding assays; ends SSRTRRETQL (SEQ ID NO: 13) [HPV E6 #16]”, which “Ave OD” value (EBP50 #168.2 domain 2; A450 nm) is on record?
A: The value was 0.3455.

Q: What about the “OD S/N” value (EBP50 #168.2 domain 2; vs GST only well) of the same substance?
A: Its value is 1.99.

Q: And the “Ave OD” value (KIAA0147 domain 1)?
A: The value was 2.1465 and 3.764.

Q: What about the “Ave OD” value (KIAA0316 domain 1; A450 nm) of the same substance?
A: The value was 0.343 and 0.6125.

Q: What about the “OD S/N” value (KIAA0316 domain 1; vs GST only well) of the same substance?
A: The value was 2.34 and 2.56.

Q: What about the “OD S/N” value (KIAA0380 #25.6 domain 1) of the same substance?
A: The value was 1.95 and 3.06.

Q: What about the “Ave OD” value (KIAA0380 #25.8 domain 1; A450 nm) of the same substance?
A: Its value is 0.603.

Q: And the “OD S/N” value (KIAA0380 #25.8 domain 1; vs GST only well)?
A: Its value is 3.58.

Q: And the “Ave OD” value (KIAA0561 domain 1; A450 nm)?
A: Its value is 0.3475.

Q: What about the “OD S/N” value (KIAA0561 domain 1; vs GST only well) of the same substance?
A: The value was 2.44.

Q: What about the “Ave OD” value (KIAA1095 domain 1; A450 nm) of the same substance?
A: Its value is 2.7045 and 1.711.

Q: And the “OD S/N” value (KIAA1095 domain 1; vs GST only well)?
A: The value was 13.13 and 7.96.

Q: What about the “Ave OD” value (KIAA1526 #126.1 domain 2; A450 nm) of the same substance?
A: The value was 0.4625.

Q: What about the “OD S/N” value (KIAA1526 #126.1 domain 2; vs GST only well) of the same substance?
A: The value was 1.87.

Q: What about the “Ave OD” value (KIAA1634 domain 5; A450 nm) of the same substance?
A: Its value is 0.4025.

Q: And the “OD S/N” value (KIAA1634 domain 5; vs GST only well)?
A: The value was 2.07.

Q: And the “Ave OD” value (KIAA1719 domain 5; A450 nm)?
A: The value was 0.3895.

Q: And the “OD S/N” value (KIAA1719 domain 5; vs GST only well)?
A: The value was 1.81.

Q: What about the “Ave OD” value (MUPP1 domain 7; A450 nm) of the same substance?
A: Its value is 0.498.

Q: What about the “OD S/N” value (MUPP1 domain 7; vs GST only well) of the same substance?
A: The value was 1.61.

Q: And the “Ave OD” value (NeDLG domain 1; A450 nm)?
A: Its value is 0.5165.

Q: And the “OD S/N” value (NeDLG domain 1; vs GST only well)?
A: Its value is 1.98.

Q: And the “Ave OD” value (RGS12 domain 1; A450 nm)?
A: Its value is 0.4295 and 0.661.

Q: And the “OD S/N” value (RGS12 domain 1; vs GST only well)?
A: The value was 3.96 and 4.64.

Q: What about the “Ave OD” value (ZO-1 domain 2; A450 nm) of the same substance?
A: The value was 0.518.

Q: What about the “OD S/N” value (ZO-1 domain 2; vs GST only well) of the same substance?
A: Its value is 3.02.
